Data from patent publication US5756491A, “Antiviral cobalt-organic compounds” (priority 1991, dated 1998).

Legend:
HSV-2 = HSV-2 plaque reduction assay; type: cell-based; parameters: unit not given beside the values; details: for IC50: toxicity IC50
Procedure: (§1) Two days prior to use, HFF cells are plated into six well plates and incubated at 37° C. with 5% CO2 and 90% humidity. On the date of assay, the drug is made up at twice the desired concentration in 2×MEM and then serially diluted 1:5 in 2×MEM using six concentrations of drug. The initial starting concentration is usually 200 μg/ml down to 0.06 μg/ml. The virus to be used is diluted in MEM containing 10% FBS to a desired concentration which will give 20-30 plaques per well. The media is then aspirated from the wells and 0.2 ml of virus is added to each well in duplicate with 0.2 ml of media being added to drug toxicity wells. The plates are then incubated for one hour with shaking every fifteen minutes. After the incubation period, an equal amount of 1% agarose was added to a equal volume of each drug dilution. This will give final drug concentrations beginning with 100 μg/ml and ending with 0.03 μg/ml and a final agarose overlay concentration of 0.5%. The drug agarose mixture is applied to each well in 2 ml volume and the plates then incubated for three days, after which the cells were stained with a 1.5% solution of neutral red. At the end of 4-6 hr incubation period, the stain is aspirated, and plaques counted using a stereomicroscope at 1×magnification.
(§2) The procedure for the liquid overlay plaque assay is similar to that using the agarose overlay. The procedure for adding the virus is the same as for the regular plaque assay. The drugs are made up in a concentration to be used in MEM with 2% FBS. The drugs are not made up at 2×concentration as in previous assays but are made up at the desired concentration. For HSV-1 and HSV-2 assays, an antibody preparation obtained from Baxter Health Care Corporation is diluted 1:500 and added to the media that the drug is diluted in. For CMV and VZV, no antibody in the overlay is utilized. For the CMV assay, additional medium without new drug is added on day six and allowed to incubate for a total of 11 days. For VZV, additional media is added on day five and incubated for a total of eight days. At the end of the incubation period for all of the assays, the medium is removed, the cells washed and then stained with 0.1% crystal violet solution for ten minutes. The cells are then rinsed several times to remove any excess crystal violet and plaques enumerated using a stereomicroscope.
(§3) I. EC50 values were also determined for each of the viruses tested for known antiviral agents. The comparison compound was ACV for all viruses except for HCMV aherein DHPG was the comparison compound. In Table 26, these comparison EC50 values are indicated with an asterisk. In Table 27, the drug FIAU (2'-fluoro-5-iodo-arabinosyl-uracil) was used as a control.

HSV-2 (MS strain) [1] = assay: External genital lesion development in primary genital HSV-2 infection of guinea pigs; type: in vivo, Female Hartley strain guinea pigs; parameters: key to Lesion Score-Day Area Under Curve: area under 0-5+ lesion score vs day curve (score-days); key to Mean Peak Lesion Score: lesion severity on 0-5+ scale; details: 20 mg/ml
Procedure: (§4) A series of studies were carried out to compare the activity of inventive antiviral Compounds 23, 76, and 82 in a primary genital HSV-2 infection of guinea pigs. The experiments were placebo-controlled and uninfected animals were treated with three concentrations of each of the preparations to assess skin irritation and determine the maximum tolerated dose.
(§5) The MS strain of HSV-2 was utilized for the experimental animal infection. Female Hartley strain guinea pigs (Charles River Breeding Laboratories, Kingston, N.Y.) weighing 250-300 g were inoculated intravaginally with 1.4×10^5 plaque forming units of HSV-2 one hour after being swabbed for the removal of vaginal secretions.
(§6) Groups of 10 infected guinea pigs were treated topically as stated above with 20 mg/ml (the maximum tolerated dose) of each compound beginning 6 h or 24 h after inoculation with HSV-2.
To determine the effect of therapy on the development and spread of external genital lesions, lesion severity was scored on a 0-5+ scale through the primary infection (21 days). Mean peak lesion scores and the areas under the lesion score-day curves were calculated and analyzed.
(§7) The number of animals infected over the number inoculated, lesion score-day areas and virus titer-day areas under the curve, peak lesion scores and peak virus titers between untreated and placebo-treated or placebo-treatedand drug-treated animals were compared using the Mann-Whitney U rank sum test. A p-value of 0.05 or less was considered significant.

HSV-1 = HSV-1 plaque reduction assay; type: cell-based; parameters: IC50: unit not given beside the values; details: for IC50: toxicity IC50
Procedure: as §1, §2, §3

HSV-2 (MS strain) [2] = assay: Vaginal virus replication in primary genital HSV-2 infection of guinea pigs; type: in vivo, Female Hartley strain guinea pigs; details: for # Infected/# Inoculated / Mean Peak Virus Titer / P-Value for Mean Peak Virus Titer / Virus Titer-Day Area Under Curve: 20 mg/ml; for infectivity rate: treatment beginning 6 h after infection
Procedure: as §4, §5, §6
To determine the effect of treatment on vaginal virus replication, swabs of vaginal secretions were obtained on days 1, 3, 5, 7, and 10 after HSV-2 inoculation, placed in a tube containing 2.0 ml of media, vortexed and frozen at -70° until titrated for HSV-2. When all samples were collected, they were thawed, diluted serially and HSV-2 titers were determined using rabbit kidney cells in a microtiter CPE assay. Mean peak virus titers and areas under the virus titer-day curves were calculated and analyzed.
as §7

[3] = Procedure: A stock solution of each compound to be tested at a concentration of 5 mg/ml was prepared. The stock solution was serially diluted in Hank's Balanced Salt Solution (HBSS) to obtain final drug concentrations of 5, 2, 1, 0.5, 0.1, 0.01, 0.001 and 0.0001 mg/ml. […] In such cases, the highest dissolved concentration that could be obtained was utilized.
Concentrations of compounds 93, 96, and 23 were prepared as follows: A stock solution of each compound at a concentration of 5 mg/ml was made. This stock solution was serially diluted in Hanks Balanced Salt Solution to obtain final drug concentrations of: 5, 2, 1, 0.5, 0.1, 0.01, 0.001, and 0.0001 mg/ml. Five hundred μl of each drug concentration were added to triplicate infected monolayers.

CC1=CC(C)=[N+]2CC[N+]3=C(C)C=C(C)[O][Co-3]23([NH3+])([NH3+])[O]1.[Cl-] [Compound 23, reference compound]
EC50 (HSV-2): > 4 | IC50 (HSV-2): 7.0 | Lesion Score-Day Area Under Curve (HSV-2 (MS strain) [1]; started +6h): 0.0 | Mean Peak Lesion Score (HSV-2 (MS strain) [1]; started +6h): 0.0 | P-Value for Mean Peak Lesion Score (HSV-2 (MS strain) [1]; started +6h): < 0.001 | Lesion Score-Day Area Under Curve (HSV-2 (MS strain) [1]; started +24h): 43.8 | Mean Peak Lesion Score (HSV-2 (MS strain) [1]; started +24h): 3.4 | EC50 (HSV-1): > 4 | IC50 (HSV-1): 7.0 | # Infected/# Inoculated (HSV-2 (MS strain) [2]; started +6h): 5/10 | Mean Peak Virus Titer (HSV-2 (MS strain) [2]; started +6h): 1.1 | P-Value for Mean Peak Virus Titer (HSV-2 (MS strain) [2]; started +6h): < 0.001 | Virus Titer-Day Area Under Curve (HSV-2 (MS strain) [2]; started +6h): 1.7 | # Infected/# Inoculated (HSV-2 (MS strain) [2]; started +24h): 10/10 | Mean Peak Virus Titer (HSV-2 (MS strain) [2]; started +24h): 4.1 | Virus Titer-Day Area Under Curve (HSV-2 (MS strain) [2]; started +24h): 14.5 | infectivity rate (HSV-2 (MS strain) [2]): 50%

CC([O-])=CC(C)=NCCN=C(C)C=C(C)[O-].[Cl-].[Co+3].c1c[nH]cn1.c1c[nH]cn1 [Compound 82]
Lesion Score-Day Area Under Curve (HSV-2 (MS strain) [1]; started +6h): 3.5 | Mean Peak Lesion Score (HSV-2 (MS strain) [1]; started +6h): 0.7 | P-Value for Mean Peak Lesion Score (HSV-2 (MS strain) [1]; started +6h): < 0.001 | Lesion Score-Day Area Under Curve (HSV-2 (MS strain) [1]; started +24h): 53.8 | Mean Peak Lesion Score (HSV-2 (MS strain) [1]; started +24h): 3.4 | # Infected/# Inoculated (HSV-2 (MS strain) [2]; started +6h): 5/10 | Mean Peak Virus Titer (HSV-2 (MS strain) [2]; started +6h): 1.1 | P-Value for Mean Peak Virus Titer (HSV-2 (MS strain) [2]; started +6h): < 0.001 | Virus Titer-Day Area Under Curve (HSV-2 (MS strain) [2]; started +6h): 3.3 | # Infected/# Inoculated (HSV-2 (MS strain) [2]; started +24h): 10/10 | Mean Peak Virus Titer (HSV-2 (MS strain) [2]; started +24h): 4.6 | Virus Titer-Day Area Under Curve (HSV-2 (MS strain) [2]; started +24h): 26.4 | effect on virus titer AUC (HSV-2 (MS strain) [2]; started +24 h): failed to alter the virus titer AUC | infectivity rate (HSV-2 (MS strain) [2]): 50%

CC(=NCCN=C(C)C(Cl)=C(C)[O-])C(Cl)=C(C)[O-].[Br-].[Co+3].c1c[nH]cn1.c1c[nH]cn1 [Compound 93]
solubility at 5 and 2 mg/ml [3]: not to be soluble

CC([O-])=CC(C)=NCCN=C(C)C=C(C)[O-].Cc1ncc[nH]1.Cc1ncc[nH]1.[Br-].[Co+3] [Compound 96]
EC50 (HSV-2): > 4 | IC50 (HSV-2): 10.2 | EC50 (HSV-1): > 4 | IC50 (HSV-1): 10.2 | solubility of stock solution at 1 mg/ml [3]: moderately insoluble
